Experimental data taken from paper PMC9607104, “Switching the N-Capping Region from all-L to all-D Amino Acids in a VEGF Mimetic Helical Peptide” (Molecules, 2022).
Square brackets hold non-standard residues; d marks the D form. Peptide text beside a SMILES is read from it.

Assay: Peptide stability in 50% human serum (RP-HPLC time course)
Assay type: in vitro ADME
Conditions: 50% aqueous human serum, 37 °C, time points 0, 30 (35), 120 min, RP-HPLC peak area at 220 nm, triplicate
Protocol: D-amino acids are more resistant to protease degradation. In order to verify the effect of D-amino acid replacement on QK stability in serum, we performed a time-course analysis. Peptides were incubated with 50% diluted human serum and analyzed by RP-HPLC at three different times (0′, 35′ and 120′). The area of the chromatographic peak corresponding to the entire peptide was determined (Figure 6). Overall, peptide QK presents fairly good stability in 50% serum, as almost the 50% is still present after […] of incubation.
Figure 6 Analysis of peptide stability in 50% human serum. […] Data are reported as means of a triplicate experiment.
Briefly, 20 µL of peptide (10 mg/mL stock solution in H2O) were added to 200 µL of 50% aqueous solution of human serum (Sigma-Aldrich) (previously centrifuged at 10,000 rpm for 10 min at 4 °C) and the mixture was incubated at 37 °C. At each time point (0, 30, 120 min), an aliquot of 6 µL was diluted in a ten times volume of H2O and analyzed by RP-HPLC on an Atlantis C18-column (Waters, 5 µm, 4.6 mm × 150 mm) using a linear aqueous acetonitrile gradient containing TFA (0.1%, v/v). Initial condition 5% B, 5−5% B in 5 min, 5−40% B in 27 min, 40−100% B in 5 min, and flow rate 1 mL/min (B = acetonitrile 0.1% TFA). Peptides were detected by recording the absorbance at 220 nm and quantified by their peak areas relative to the initial peak areas (0 min). […]

effect of the N-terminal D-amino acids on stability in human serum (versus QK): unaffected
Structure (SMILES): CC[C@H](C)[C@H](NC(=O)CNC(=O)[C@H](CCCCN)NC(=O)[C@H](Cc1ccc(O)cc1)NC(=O)[C@H](CCCCN)NC(=O)[C@H](CC(C)C)NC(=O)[C@H](CCC(N)=O)NC(=O)[C@H](Cc1ccc(O)cc1)NC(=O)[C@H](CC(C)C)NC(=O)[C@H](CCC(=O)O)NC(=O)[C@H](CCC(N)=O)NC(=O)[C@H](Cc1c[nH]c2ccccc12)NC(=O)[C@H](NC(=O)[C@@H](CC(C)C)NC(=O)[C@@H](CCCCN)NC(C)=O)[C@H](C)O)C(N)=O [D-QK, Ac-^DLys-^DLeu-^DThr-Trp-Gln-Glu-Leu-Tyr-Gln-Leu-Lys-Tyr-Lys-Gly-Ile-NH2] (Ac-[dK][dL][dT]WQELYQLKYKGI-NH2)
